The assay deals with T1, human farnesoid X receptor (Homo sapiens, UniProt Q96RI1).
T1 construct: CMX-farnesoid X receptor (full length human farnesoid X receptor); expressed in transfected cells; host or cells: CV-1 African Green Monkey Kidney cells
T1 sequence (Q96RI1 1-472 isoform Q96RI1-2): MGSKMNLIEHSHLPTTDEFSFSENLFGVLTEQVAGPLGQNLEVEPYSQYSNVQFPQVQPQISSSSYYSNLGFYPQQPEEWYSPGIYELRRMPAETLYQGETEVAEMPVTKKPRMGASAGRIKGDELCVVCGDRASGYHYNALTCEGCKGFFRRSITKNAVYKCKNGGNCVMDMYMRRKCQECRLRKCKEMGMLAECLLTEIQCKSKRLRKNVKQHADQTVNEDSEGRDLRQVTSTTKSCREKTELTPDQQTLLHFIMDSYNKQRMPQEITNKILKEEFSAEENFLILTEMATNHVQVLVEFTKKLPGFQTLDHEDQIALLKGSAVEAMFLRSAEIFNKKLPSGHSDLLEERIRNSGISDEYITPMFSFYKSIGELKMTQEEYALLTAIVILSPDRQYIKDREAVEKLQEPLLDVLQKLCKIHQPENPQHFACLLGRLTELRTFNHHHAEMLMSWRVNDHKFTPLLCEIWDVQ
T1 sequence (P19793 1-462 partner): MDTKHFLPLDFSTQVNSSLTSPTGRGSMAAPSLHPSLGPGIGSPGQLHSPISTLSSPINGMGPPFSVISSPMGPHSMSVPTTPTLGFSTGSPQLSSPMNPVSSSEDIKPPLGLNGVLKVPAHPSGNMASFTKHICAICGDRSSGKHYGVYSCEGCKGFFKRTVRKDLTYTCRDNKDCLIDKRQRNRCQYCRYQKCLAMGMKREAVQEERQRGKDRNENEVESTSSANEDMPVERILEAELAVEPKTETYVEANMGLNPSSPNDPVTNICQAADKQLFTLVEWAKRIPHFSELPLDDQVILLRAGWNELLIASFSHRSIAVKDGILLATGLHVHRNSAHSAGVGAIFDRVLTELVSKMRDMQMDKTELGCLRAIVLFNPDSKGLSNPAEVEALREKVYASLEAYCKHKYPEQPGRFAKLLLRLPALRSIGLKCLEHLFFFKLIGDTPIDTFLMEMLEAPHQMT
Briefly: FXR in vitro assays (farnesoid X receptor/ECREx7 co-transfection assay, TR-FRET assay), Table I. It is filed as cell-based. The following applies: for EC50: agonist activity, one or more of the in vitro assays, read-out: EC50; for Emax: read-out: % Efficacy. How it is done: The basic co-transfection protocol for measuring the farnesoid X receptor activity is as follows. CV-1 African Green Monkey Kidney cells were plated 24 hours before transfection to achieve approximately 70-80 percent confluency. […] The assay was allowed to continue for an additional 18-20 hours, after which the cells were lysed, with lysis buffer (1% triton X 100, 10% glycerol, 5 mM Dithiothreitol, 1 mM EGTA, 25 mM Tricine, pH 7.8) and the luciferase activity measured in the presence of Luciferase assay buffer (0.73 mM ATP, 22.3 mm Tricine, 0.11 mM EGTA, 0.55 mM Luciferin, 0.15 mM Coenzyme A, 0.5 mM HEPES, 10 mM Magnesium sulphatc) on a standard luminometer plate reader (PE Biosystems, NorthStar Reader), using recommended operating instructions and conditions.
The dose response curves are generated from an 8 point curve with concentrations differing by ½ LOG units. Each point represents the average of 4 wells of data from a 384 well plate. A curve for the data is generated by using the equation:
Y=Bottom+(Top−Bottom)/(1+10̂((Log EC50−X)*HillSlope))
The EC50/IC50 is therefore defined as the concentration at which an agonist or antagonist elicits a response that is half way between the Top (maximum) and Bottom (baseline) values. The EC50/IC50 values represented are the averages of at least 3 independent experiments.
In general terms: Time-resolved FRET reads energy transfer from a long-lived donor to a nearby acceptor.

SMILES strings stand for the structures. Some results are limits rather than exact numbers.

With `CC(C)OC(=O)C1=CN(C(=O)c2cccc(F)c2F)CC(C)(C)c2c1[nH]c1ccccc21` [Example 74, 1-methylethyl 3-[(2,3-difluorophenyl)carbonyl]-1,1-dimethyl-1,2,3,6-tetrahydroazepino[4,5-b]indole-5-carboxylate], the EC50 (as a rule, the concentration at which the effect is half-maximal) fell in the range of 1 to 10 nM and the Emax is more than 100%.

Regarding `CC(C)OC(=O)C1=CN(C(=O)C23C[C@H]4C[C@@H](C2)C[C@@H](C3)C4)CC(C)(C)c2c1[nH]c1ccccc21` [Example 24, 1-methylethyl 1,1-dimethyl-3-[(3s,5s,7s)-tricyclo[3.3.1.1~3,7~]dec-1-ylcarbonyl]-1,2,3,6-tetrahydroazepino [4,5-b]indole-5-carboxylate], the EC50 was 10 to 100 nM and the Emax was more than 100%.

As to `CC(C)OC(=O)C1=CN(C(=O)c2cccc(CN3CCN(S(=O)(=O)c4ccc(F)cc4)CC3)c2)CC(C)(C)c2c1[nH]c1ccccc21` [Example 168, 1-methylethyl 3-{[3-({4-[(4-fluorophenyl)sulfonyl]piper-azin-1-yl}methyl)phenyl]carbonyl}-1,1-dimethyl-1,2,3,6-tetrahydroazepino[4,5-b]indole-5-carboxylate], the half-maximal effective concentration (EC50) was 100 to 1000 nM and the Emax is more than 100%.

Consider `CCN(CC)CCCOc1cccc(C(=O)N2C=C(C(=O)OC(C)C)c3[nH]c4ccccc4c3C(C)(C)C2)c1` [Example 188, 1-methylethyl 3-[(3-{[3-(diethylamino)propyl]oxy}phenyl)carbonyl]-1,1-dimethyl-1,2,3,6-tetrahydroazepino[4,5-b]indole-5-carboxylate], for which the EC50 is 1000 to 10000 nM and the Emax was more than 100%.

As to `CC(C)OC(=O)C1=CN(C(=O)c2ccc(F)c(Br)c2)CC(C)(C)c2c1[nH]c1ccccc21` [Example 154, 1-methylethyl 3-[(3-bromo-4-fluorophenyl)carbonyl]-1,1-dimethyl-1,2,3,6-tetrahydroazepino[4,5-b]indole-5-carboxylate], the EC50 lay within 10 to 100 nM and the Emax was more than 100%.

On to `CC1(C)OCC(COC(=O)C2=CN(C(=O)c3ccc(F)c(F)c3)CC(C)(C)c3c2[nH]c2ccccc32)O1` (stereo not drawn) [Example 122, (2,2-dimethyl-1,3-dioxolan-4-yl)methyl 3-[(3,4-difluorophenyl)carbonyl]-1,1-dimethyl-1,2,3,6-tetrahydroazepino[4,5-b]indole-5-carboxylate], for which the EC50 was in the range of 100 to 1000 nM and the Emax was more than 100%.

For the compound `CC(C)OC(=O)C1=CN(C(=O)c2ccc(F)c(F)c2F)CC(C)(C)c2c1[nH]c1ccccc21` [Example 77, 1-methylethyl 1,1-dimethyl-3-[(2,3,4-trifluorophenyl)carbonyl]-1,2,3,6-tetrahydroazepino[4,5-b]indole-5-carboxylate], the EC50 fell in the range of 1 to 10 nM and the Emax is more than 100%.

`CC(C)OC(=O)C1=CN(C(=O)c2cccc(CN3CCN(C(=O)Nc4ccccc4)CC3)c2)CC(C)(C)c2c1[nH]c1ccccc21` [Example 184]: the concentration giving a half-maximal response (EC50) is 10 to 100 nM and the Emax was more than 100%.

For the compound `CC(C)OC(=O)C1=CN(C(=O)c2ccc(F)cc2F)CC(C)(C)c2c1[nH]c1ccccc21` [Example 73, 1-methylethyl 3-[(2,4-difluorophenyl)carbonyl]-1,1-dimethyl-1,2,3,6-tetrahydroazepino[4,5-b]indole-5-carboxylate], the EC50 lay in the range of 1 to 10 nM and the Emax was more than 100%.

For the compound `CC(C)OC(=O)C1=CN(C(=O)c2c(F)ccc(Cl)c2F)CC(C)(C)c2c1[nH]c1ccccc21` [Example 145, 1-methylethyl 3-[(3-chloro-2,6-difluorophenyl)carbonyl]-1,1-dimethyl-1,2,3,6-tetrahydroazepino[4,5-b]indole-5-carboxylate], the EC50 was in the range of 100 to 1000 nM and the Emax is more than 100%.

Turning to `CC(C)OC(=O)C1=CN(C(=O)c2cc(F)c(F)c(OCCN3CCCCC3)c2)CC(C)(C)c2c1[nH]c1ccccc21` [Example 180, 1-methylethyl 3-({3,4-difluoro-5-[(2-piperidin-1-ylethyl)oxy]phenyl}carbonyl)-1,1-dimethyl-1,2,3,6-tetrahydroazepino[4,5-b]indole-5-carboxylate], the EC50 is 10 to 100 nM and the Emax is more than 100%.

As for `CC(C)OC(=O)C1=CN(C(=O)c2cccc(CN3CCN(S(=O)(=O)c4ccccc4)CC3)c2)CC(C)(C)c2c1[nH]c1ccccc21` [Example 167, 1-methylethyl 1,1-dimethyl-3-[(3-{[4-(phenylsulfonyl)piperazin-1-yl]methyl}phenyl)carbonyl]-1,2,3,6-tetrahydroazepino[4,5-b]indole-5-carboxylate], the EC50 is 100 to 1000 nM and the Emax is more than 100%.

For `CC(C)OC(=O)C1=CN(C(=O)c2ccc(F)cc2C(F)(F)F)CC(C)(C)c2c1[nH]c1ccccc21` [Example 110, 1-methylethyl 3-{[4-fluoro-2-(trifluoromethyl)phenyl]car-bonyl}-1,1-dimethyl-1,2,3,6-tetrahydroazepino[4,5-b]indole-5-carboxylate], the EC50 was 10 to 100 nM and the Emax was more than 100%.

As for `COc1ccc(C(=O)N2C=C(C(=O)OC(C)C)c3[nH]c4ccccc4c3C(C)(C)C2)cc1OC` [Example 100, 1-methylethyl 3-{[3,4-bis(methyloxy)phenyl]car-bonyl}-1,1-dimethyl-1,2,3,6-tetrahydroazepino[4,5-b]indole-5-carboxylate], the EC50 fell in the range of 10 to 100 nM and the Emax was more than 100%.

For the compound `CC(C)OC(=O)C1=CN(C(=O)C2CCCCC2)CC(C)(C)c2c1[nH]c1ccccc21` [Example 1, 1-Methylethyl 1,1-Dimethyl-1,2,3,6-Tetrahydroazepino [4,5-b]Indole-5-CarboxylateE], the EC50 lay within 10 to 100 nM and the Emax is more than 100%.

Take `CC(C)OC(=O)C1=CN(C(=O)c2cccc(CN3CCN(C(=O)C4CC4)CC3)c2)CC(C)(C)c2c1[nH]c1ccccc21` [Example 173, 1-methylethyl 3-[(3-{[4-(cyclopropylcarbonyl)piper-azin-1-yl]methyl}phenyl)carbonyl]-1,1-dimethyl-1,2,3,6-tetrahydroazepino[4,5-b]indole-5-carboxylate]: the EC50 lay within 100 to 1000 nM and the Emax was more than 100%.

For `CC(C)OC(=O)C1=CN(C(=O)c2ccc(F)c(F)c2)CC(C)(C)c2c1[nH]c1cc(OCCCN(C)C)ccc21` [Example 99, 1-methylethyl 3-[(3,4-difluorophenyl)carbonyl]-8-{[3-(dimethylamino)propyl]oxy}-1,1-dimethyl-1,2,3,6-tetrahydroazepino[4,5-b]indole-5-carboxylate], the half-maximal effective concentration (EC50) lay in the range of 100 to 1000 nM and the Emax lay within 40 to 60%.

On to `CC(C)OC(=O)C1=CN(C(=O)c2ccc(C(F)(F)F)c(F)c2)CC(C)(C)c2c1[nH]c1ccccc21` [Example 84, 1-methylethyl 3-{[3-fluoro-4-(trifluoromethyl)phenyl]car-bonyl}-1,1-dimethyl-1,2,3,6-tetrahydroazepino[4,5-b]indole-5-carboxylate], for which the EC50 is 10 to 100 nM and the Emax is more than 100%.

As to `CC(C)OC(=O)C1=CN(C(=O)c2cccc(CN3CCCC3)c2)CC(C)(C)c2c1[nH]c1ccccc21` [Example 117, 1-methylethyl 1,1-dimethyl-3-{[3-(pyrrolidin-1-ylmethyl)phenyl]carbonyl}-1,2,3,6-tetrahydroazepino[4,5-b]indole-5-carboxylate], the Emax was more than 100%.

Consider `CC(C)OC(=O)C1=CN(C(=O)c2ccc(F)c(Cl)c2)CC(C)(C)c2c1[nH]c1ccccc21` [Example 147, 1-methylethyl 3-[(3-chloro-4-fluorophenyl)carbonyl]-1,1-dimethyl-1,2,3,6-tetrahydroazepino[4,5-b]indole-5-carboxylate], for which the EC50 is 1 to 10 nM and the Emax was more than 100%.

Source of the values: patent US20090203577A1 (EXELIXIS, INC., priority 2005, published 2009).
